The term IC50 denotes the concentration needed to halve the response being measured. A low value points to inhibition by little substance.

Chain of PD-1/PD-L1 (Q9NZQ7 19-238): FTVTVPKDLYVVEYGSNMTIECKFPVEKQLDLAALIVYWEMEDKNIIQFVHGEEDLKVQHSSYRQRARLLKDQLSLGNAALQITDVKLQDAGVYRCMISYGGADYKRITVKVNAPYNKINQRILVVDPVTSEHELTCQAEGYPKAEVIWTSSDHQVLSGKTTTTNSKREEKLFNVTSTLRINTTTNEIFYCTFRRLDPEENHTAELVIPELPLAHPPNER

The first experiment has as its target PD-1/PD-L1 (Homo sapiens (Human), UniProt Q9NZQ7). Kind of experiment: PD-1/PD-L1 Binding Assay (Alphascreen). The settings on record: numeric values. In outline:
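PD-1/PD-L1 binding detected by anti-6×His acceptor and streptavidin donor beads after 120 min in the dark at 25 °C. Beforehand, the two proteins were incubated 15 min at 25 °C with inhibitor at 0.015–300 nM (1% DMSO). IC50 comes from a log concentration–response curve.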
(In general: In Alpha technology, singlet oxygen from a donor bead excites a nearby acceptor bead.)
For the compound `Cc1c(-c2nc3cc(CN4CCC[C@H]4C(N)=O)c(OC(F)F)cc3o2)cccc1-c1cccc(-c2nc3cc(CN4CCC[C@H]4C(=O)O)c(OC(F)F)cc3o2)c1C` [Example 11, ((2-(3′-(5-(((S)-2-carbamoylpyrrolidin-1-yl)methyl)-6-(difluoromethoxy)benzo[d]oxazol-2-yl)-2,2′-dimethyl-[1,1′-biphenyl]-3-yl)-6-(difluoromethoxy)benzo[d]oxazol-5-yl)methyl)-L-proline], the half-inhibitory concentration (IC50) turned out to be 33 nM.
Same read-out and setting: as for `Cc1c(-c2ccc(CN3CCC(N(C)C)C3)cc2)cccc1-c1cccc(-c2nc3cc(CN4CCC[C@H]4C(=O)O)c(OC(F)F)cc3o2)c1C` (stereo partly drawn) [Example 228, ((6-(difluoromethoxy)-2-(4″-((3-(dimethylamino)pyrrolidin-1-yl)methyl)-2,2′-dimethyl-[1,1′:3′,1″-terphenyl]-3-yl)benzo[d]oxazol-5-yl)methyl)-L-proline], the figure is 4.3 nM; as for `Cc1c(-c2nc3cc(CN4CC(F)C4)c(OC(F)F)cc3o2)cccc1-c1cccc(-c2nc3cc(CN4CCC[C@H]4C(=O)O)c(OC(F)F)cc3o2)c1C` [Example 9, ((6-(difluoromethoxy)-2-(3′-(6-(difluoromethoxy)-5-((3-fluoroazetidin-1-yl)methyl)benzo[d]oxazol-2-yl)-2,2′-dimethyl-[1,1′-biphenyl]-3-yl)benzo[d]oxazol-5-yl)methyl)-L-proline], 18 nM.
Regarding `Cc1c(-c2nc3c(o2)CNC3)cccc1-c1cccc(-c2nc3cc(CN4CCC[C@H]4C(=O)O)c(OC(F)F)cc3o2)c1C` [Example 202, ((6-(difluoromethoxy)-2-(3′-(5,6-dihydro-4H-pyrrolo[3,4-d]oxazol-2-yl)-2,2′-dimethyl-[1,1′-biphenyl]-3-yl)benzo[d]oxazol-5-yl)methyl)proline], the IC50 came out at 0.37 nM. Compared with the last compound, the IC50 is about 49-fold lower.

The same experiment, now with this note: range symbols.
Regarding `Cc1c(-c2nc3c(o2)CCN(Cc2cccnc2)C3)cccc1-c1cccc(-c2nc3cc(CN4CCC[C@H]4C(=O)O)c(OC(F)F)cc3o2)c1C` [Example 194, ((6-(difluoromethoxy)-2-(2,2′-dimethyl-3′-(5-(pyridin-3-ylmethyl)-4,5,6,7-tetrahydrooxazolo[4,5-c]pyridin-2-yl)-[1,1′-biphenyl]-3-yl)benzo[d]oxazol-5-yl)methyl)proline], the IC50 was 5 to 50 nM.
On the same count and under the same terms, as for `Cc1c(-c2nc3cc(CN4CC5(CCNCC5)C4)c(OC(F)F)cc3o2)cccc1-c1cccc(-c2nc3cc(CN4CCC[C@H]4C(=O)O)c(OC(F)F)cc3o2)c1C` [Example 51, ((2-(3′-(5-((2,7-diazaspiro[3.5]nonan-2-yl)methyl)-6-(difluoromethoxy)benzo[d]oxazol-2-yl)-2,2′-dimethyl-[1,1′-biphenyl]-3-yl)-6-(difluoromethoxy)benzo[d]oxazol-5-yl)methyl)-L-proline], the figure is 0.1 to 5 nM; as for `Cc1c(-c2nc3c(o2)CCN(C(C)C(=O)O)C3)cccc1-c1cccc(-c2nc3cc(CN4CCC[C@H]4C(=O)O)c(OC(F)F)cc3o2)c1C` (stereo partly drawn) [Example 186, ((2-(3′-(5-(1-carboxyethyl)-4,5,6,7-tetrahydrooxazolo[4,5-c]pyridin-2-yl)-2,2′-dimethyl-[1,1′-biphenyl]-3-yl)-6-(difluoromethoxy)benzo[d]oxazol-5-yl)methyl)-L-proline], 0.1 to 5 nM.
Compound `Cc1c(COc2cc(OCc3cccc(C#N)c3)c(CN3CCC[C@H]3C(=O)O)cc2Cl)cccc1-c1cccc(-c2nc3cc(CN4CCC[C@H]4C(=O)O)c(OC(F)F)cc3o2)c1C` [Example 211] showed an IC50 of 0.1 to 5 nM.
Take `Cc1c(-c2nc3c(o2)CCN(CCS(C)(=O)=O)C3)cccc1-c1cccc(-c2nc3cc(CN4CCC[C@H]4C(=O)O)c(OC(F)F)cc3o2)c1C` [Example 185, ((6-(difluoromethoxy)-2-(2,2′-dimethyl-3′-(5-(2-(methylsulfonyl)ethyl)-4,5,6,7-tetrahydrooxazolo[4,5-c]pyridin-2-yl)-[1,1′-biphenyl]-3-yl)benzo[d]oxazol-5-yl)methyl)-L-proline]: the IC50 lay in the range of 0.1 to 5 nM.
`Cc1c(-c2nc3cc(CN4CCC[C@H]4C(=O)O)c(OC(F)F)cc3o2)cccc1-c1cccc(-c2nc3cc(CN4CC[C@@H](CO)C4)cc(C#N)c3o2)c1C` [Example 154, ((2-(3′-(7-cyano-5-(((R)-3-(hydroxymethyl)pyrrolidin-1-yl)methyl)benzo [d]oxazol-2-yl)-2,2′-dimethyl-[1,1′-biphenyl]-3-yl)-6-(difluoromethoxy)benzo[d]oxazol-5-yl)methyl)-L-proline] registered an IC50 of 5 to 50 nM.
As for `Cc1c(-c2nc3cc(CN4CCC[C@H]4C(=O)O)c(OC(F)F)cc3o2)cccc1-c1cccc(-c2nc3cc(CN4CC(N5CCOCC5)C4)cc(C#N)c3o2)c1C` [Example 148, ((2-(3′-(7-cyano-5-((3-morpholinoazetidin-1-yl)methyl)benzo[d]oxazol-2-yl)-2,2′-dimethyl-[1,1′-biphenyl]-3-yl)-6-(difluoromethoxy)benzo[d]oxazol-5-yl)methyl)-L-proline], the IC50 lay in the range of 5 to 50 nM.
`Cc1c(-c2nc3cc(CN4CCC[C@H]4C(=O)O)c(OC(F)F)cc3o2)cccc1-c1cccc(-c2ccc(CN3CCCC3)cc2F)c1Cl` [Example 222, ((2-(2′-chloro-2″-fluoro-2-methyl-4″- (pyrrolidin-1-ylmethyl)-[1,1′:3′,1″-terphenyl]-3-yl)-6-(difluoromethoxy)benzo[d]oxazol-5-yl)methyl)proline] returned an IC50 of 0.1 to 5 nM.
Same read-out and setting: for `Cc1c(-c2nc3cc(CN(C)C[C@H]4CCCO4)c(OC(F)F)cc3o2)cccc1-c1cccc(-c2nc3cc(CN4CCC[C@H]4C(=O)O)c(OC(F)F)cc3o2)c1C` [Example 30, ((6-(difluoromethoxy)-2-(3′-(6-(difluoromethoxy)-5-((methyl(((R)-tetrahydrofuran-2-yl)methyl)amino)methyl)benzo[d]oxazol-2-yl)-2,2′-dimethyl-[1,1′-biphenyl]-3-yl)benzo[d]oxazol-5-yl)methyl)-L-proline] the value was 0.1 to 5 nM.
`Cc1c(-c2nc3cc(CN4CCC[C@H]4C(=O)O)c(OC(F)F)cc3o2)cccc1-c1cccc(-c2nc3cc(CN4CC(C)C(N)C4)cc(C#N)c3o2)c1C` (some centres unmarked) [Example 156] yielded an IC50 of 0.1 to 5 nM.
In the case of `Cc1c(-c2nc3cc(CN4CCC[C@H]4C(=O)O)c(OC(F)F)cc3o2)cccc1-c1cccc(-c2nc3cc(CN4CCC(F)C4)cc(C(F)(F)F)c3o2)c1C` (stereo partly drawn) [Example 166, ((6-(difluoromethoxy)-2-(3′-(5-((3-fluoropyrrolidin-1-yl)methyl)-7-(trifluoromethyl)benzo[d]oxazol-2-yl)-2,2′-dimethyl-[1,1′-biphenyl]-3-yl)benzo[d]oxazol-5-yl)methyl)-L-proline], the IC50 lay within 5 to 50 nM.
On the same count and under the same terms, as for `Cc1c(-c2nc3cc(CN4CCCC4)cc(C#N)c3[nH]2)cccc1-c1cccc(-c2nc3cc(CN4CCC[C@H]4C(=O)O)c(OC(F)F)cc3o2)c1C` [Example 295, ((2-(3′-(7-cyano-5-(pyrrolidin-1-ylmethyl)-1H-benzo[d]imidazol-2-yl)-2,2′-dimethyl-[1,1′-biphenyl]-3-yl)-6-(difluoromethoxy)benzo[d]oxazol-5-yl)methyl)-L-proline], the figure is 5 to 50 nM.
On to `Cc1c(-c2nc3cc(CN[C@@H]4CCC[C@@H]4O)ccc3o2)cccc1-c1cccc(-c2nc3cc(CN4CCC[C@@H]4C(=O)O)c(OC(F)F)cc3o2)c1C` [Example 310, ((6-(difluoromethoxy)-2-(3′-(5-((((1R,2S)-2-hydroxycyclopentyl)amino)methyl)benzo[d]oxazol-2-yl)-2,2′-dimethyl-[1,1′-biphenyl]-3-yl)benzo[d]oxazol-5-yl)methyl)-D-proline], for which the IC50 is 0.1 to 5 nM.
In turn, `Cc1c(-c2nc3cc(CN4CCC[C@H]4C(=O)O)c(OC(F)F)cc3o2)cccc1-c1cccc(-c2nc3cc(CN4CC[C@@H](CF)C4)cc(C#N)c3o2)c1C` [Example 168, ((2-(3′-(7-cyano-5-(((R)-3-(fluoromethyl)pyrrolidin-1-yl)methyl)benzo[d]oxazol-2-yl)-2,2′-dimethyl-[1,1′-biphenyl]-3-yl)-6-(difluoromethoxy)benzo[d]oxazol-5-yl)methyl)-L-proline] yielded an IC50 of 0.1 to 5 nM.
Take `CCNCc1cc2nc(-c3cccc(-c4cccc(-c5nc6cc(CN7CCC[C@H]7C(=O)O)c(OC(F)F)cc6o5)c4C)c3C)oc2cc1Cl` [Example 97, ((2-(3′-(6-chloro-5-((ethylamino)methyl)benzo[d]oxazol-2-yl)-2,2′-dimethyl-[1,1′-biphenyl]-3-yl)-6-(difluoromethoxy)benzo[d]oxazol-5-yl)methyl)-L-proline]: the IC50 lay within 0.1 to 5 nM.
`COc1nc(-c2cccc(-c3cccc(-c4nc5cc(CN6CCC[C@H]6C(=O)O)c(OC(F)F)cc5o4)c3C)c2C)ccc1CN1CCC[C@@H]1C` [Example 277, ((6-(difluoromethoxy)-2-(3′-(6-methoxy-5-(((S)-2-methylpyrrolidin-1-yl)methyl)pyridin-2-yl)-2,2′-dimethyl-[1,1′-biphenyl]-3-yl)benzo[d]oxazol-5-yl)methyl)-L-proline] displayed an IC50 of 0.1 to 5 nM.
With `CCN(CCO)Cc1cc(C#N)c2oc(-c3cccc(-c4cccc(-c5nc6cc(CN7CCC[C@H]7C(=O)O)c(OC(F)F)cc6o5)c4C)c3C)nc2c1` [Example 141, ((2-(3′-(7-cyano-5-((ethyl(2-hydroxyethyl)amino)methyl)benzo[d]oxazol-2-yl)-2,2′-dimethyl-[1,1′-biphenyl]-3-yl)-6-(difluoromethoxy)benzo[d]oxazol-5-yl)methyl)-L-proline], the IC50 fell in the range of 0.1 to 5 nM.
Same read-out and setting: as for `Cc1c(-c2nc3cc(CN4CCC[C@H]4C(=O)O)c(OC(F)F)cc3o2)cccc1-c1cccc(-c2nc3cc(CN4CC5(CNC(=O)C5)C4)cc(C#N)c3o2)c1C` [Example 146, ((2-(3′-(7-cyano-5-((7-oxo-2,6-diazaspiro[3.4]octan-2-yl)methyl)benzo[d]oxazol-2-yl)-2,2′-dimethyl-[1,1′-biphenyl]-3-yl)-6-(difluoromethoxy)benzo[d]oxazol-5-yl)methyl)-L-proline], the figure is 0.1 to 5 nM.
On to `Cc1c(-c2nc3cc(CN4CCC[C@H]4C(=O)O)c(OC(F)F)cc3o2)cccc1-c1cccc(N2CCC(NCC3(CO)CC3)CC2)c1C` [Example 307, ((6-(difluoromethoxy)-2-(3′-(4-(((1-(hydroxymethyl)cyclopropyl)methyl)amino)piperidin-1-yl)-2,2′-dimethyl-[1,1′-biphenyl]-3-yl)benzo[d]oxazol-5-yl)methyl)-L-proline], for which the IC50 fell in the range of 0.1 to 5 nM.

The values are drawn from patent publication US12187713B2, “Immunomodulators, compositions and methods thereof” (Betta Pharmaceuticals Co., Ltd, priority 2019, dated 2025).
